Patent publication US20120035183A1, “Cancer Treatment Method” (priority 2008, published 2012)

Tests used:
[1] = system: JIMT-1 breast tumor cell line; assay: CellTiter-Glo cell growth inhibition assay, JIMT-1; type: cell-based; conditions: for IC50: Homo sapiens, JIMT-1, 72 h, JIMT1, breast, basal, HER2+, 3 days
Description: (§1) Breast tumor cell lines, BT-474, SK-Br-3, MDA-MB-453, MDA-MB-231 and T47D and head and neck squamous cell carcinoma line, SCC15 were purchased from the American Type Culture Collection.
(§2) BT-474, SK-Br-3, JimT-1, MDA-MB-453, MDA-MB-231 and T47D and SCC15 were cultured in a humidified incubator at 37° C. in 95% air, 5% CO2 in the RPMI 1640 containing 10% fetal bovine serum (FBS) media.
(§3) Cell growth inhibition was determined via CellTiter-Glo cell viability assays. Cells were seeded in a 96-well tissue culture plate (NUNC 136102) with the following plating densities in their respective media at 1000 or 2000 cells/well dependent on cell growth rate. […] The cells were incubated in the presence of the compounds for 3 days. ATP levels were determined by adding Cell Titer Glo® (Promega), incubating for 20 minutes then a luminescent signal was read on the SpectraMax M5 plate with a 0.5 sec integration time. Cell growth was calculated relative to vehicle (DMSO) treated control wells. […] When the CI value was between 0.9 and 1.10, the combination of the two agents was deemed additive. Combination Index values less than 0.9 were considered indicative of synergy. Combination Index values>1.10 indicated antagonism.

[2] = system: SK-BR-3 breast tumor cell line; assay: CellTiter-Glo cell growth inhibition assay, SK-BR-3; type: cell-based; conditions: Homo sapiens, 72 h, luminal, HER2+, 3 days
Description: as §1, §2, §3

[3] = system: BT-474 breast tumor cell line; assay: CellTiter-Glo cell growth inhibition assay, BT-474; type: cell-based; conditions: for IC50: Homo sapiens, BT-474, 72 h, BT474, breast, luminal, HER2+, 3 days
Description: as §1, §2, §3

[4] = system: MDA-MB-453 breast tumor cell line; assay: CellTiter-Glo cell growth inhibition assay, MDA-MB-453; type: cell-based; conditions: Homo sapiens, 72 h, luminal, HER2+, 3 days
Description: as §1, §2, §3

[5] = system: MDA-MB-231 breast tumor cell line; assay: CellTiter-Glo cell growth inhibition assay, MDA-MB-231; type: cell-based; conditions: Homo sapiens, 72 h, post EMT, HER normal, 3 days
Description: as §1, §2, §3

[6] = system: T47D breast tumor cell line; assay: CellTiter-Glo cell growth inhibition assay, T47D; type: cell-based; conditions: Homo sapiens, 72 h, luminal, HER normal, 3 days
Description: as §1, §2, §3

[7] = system: LL1-BT-474-J4 (J4) breast cell clone; assay: CellTiter-Glo cell growth inhibition assay, LL1-BT-474-J4; type: cell-based; conditions: for IC50: 72 h; for sensitivity of the cell line to the agent (in words): LL1-BT-474-J4
[8] = system: SCC15 head and neck squamous cell carcinoma line; assay: cells; conditions: Homo sapiens, SCC-15, 72 h, read-out: IC50 (cell growth inhibition)
Description: as §1, §2, §3

[9] = system: HN5C2 head and neck tumor cell line; assay: CellTiter-Glo cell growth inhibition assay, HN5C2; type: cell-based
EGFR and erbB2 kinases = conditions: Rusnak et al., 2001b, Xia et al., 2002; cited from earlier work

Work on `Cc1nc(Nc2ncc(C(=O)Nc3c(C)cccc3Cl)s2)cc(N2CCN(CCO)CC2)n1` [Dasatinib, N-(2-chloro-6-methylphenyl)-2-[[6-[4-(2-hydroxyethyl)-1-piperazinyl]-2-methyl-4-pyrimidinyl]amino]-5-thiazolecarboxamide,monohydrate] yielded an IC50 [1] of 0.4 µM, an IC50 [2] of 6.64 µM and an IC50 [3] of 10.1 µM. The IC50 [4] was over 10 µM, the IC50 [5] was 0.23 µM and the IC50 [6] was 8.96 µM. The IC50 [7] was over 10 µM and the IC50 [8] was 0.06 µM.
For `CS(=O)(=O)CCNCc1ccc(-c2ccc3ncnc(Nc4ccc(OCc5cccc(F)c5)c(Cl)c4)c3c2)o1` [Lapatinib, N-{3-chloro-4-[(3-fluorobenzyl)oxy]phenyl}-6-[5-({[2-(methanesulphonyl)ethyl]amino}methyl)-2-furyl]-4-quinazolinamine], the IC50 [1] was 14.7 µM, the “sensitivity of the cell line to the agent (in words)” value (shortened to “sensitivity of the cell line”) ([1]; JIMT-1) was “resistant” and the IC50 [2] was 0.22 µM. The “sensitivity of the cell line” value ([3]; BT-474) was “highly sensitive”, the IC50 [3] was 0.09 µM and the IC50 [4] was 4.79 µM. For the same molecule, the IC50 [5] was over 10 µM, the IC50 [6] was over 10 µM and the IC50 [7] was 10.9 µM. The “sensitivity of the cell line” value [7] was “resistant”, the IC50 ([9]; 72 h) was 9.78 µM and the “sensitivity of the cell line” value ([9]; HN5C2) was “resistant”. For the same molecule, the “kinase inhibition in human xenograft studies” value (EGFR and erbB2 kinases) was “dose-dependent kinase inhibition”.
In the case of `COc1cc2ncnc(Nc3ccc(F)c(Cl)c3)c2cc1OCCCN1CCOCC1` [gefitinb], the “sensitivity of the cell line” value [7] is reported as “resistant”.
For `CC(=O)O[C@H]1C(=O)[C@@]2(C)[C@H]([C@H](OC(=O)c3ccccc3)[C@]3(O)C[C@H](OC(=O)[C@H](O)[C@@H](NC(=O)c4ccccc4)c4ccccc4)C(C)=C1C3(C)C)[C@]1(OC(C)=O)CO[C@@H]1C[C@@H]2O` [taxol], the “sensitivity of the cell line” value [7] was “retains sensitivity”.
